Data published in patent US8598120B2 (Amylin Pharmaceuticals, LLC, priority 2004, dated 2013).
Square brackets hold non-standard residues; d marks the D form. * marks the point of attachment. Pentanoyl(4-Me) = CC(C)CCC(=O)*; Aib = CC(C)(N)C(=O)O; For = O=C*

Experiment: Food intake assay in overnight fasted mice
Assay type: in vivo
Settings: 25 nmol/kg intraperitoneal
Method: Female NIH/Swiss mice (8-14 weeks old) were group housed with a 12:12 hour light:dark cycle. Water and a standard pelleted mouse chow diet are available ad libitum, except as noted. Animals are fasted starting at approximately 1500 hrs, 1 day prior to experiment.
The effects of treatment on food intake are expressed as % change relative to control.

Substance	cumulative food intake compared to vehicle, 30 min	cumulative food intake compared to vehicle, 60 min	cumulative food intake compared to vehicle, 120 min	cumulative food intake compared to vehicle, 180 min
KDNTATKVLGRLSQELHRLQTYPRTNTGSNTY [Compound 69]	−29%	−31%	−45%	
DSNLSTKVLGRLSQELHRLQTYPRTNTGSNTY [Compound 68]	−10%	−13%	−21%	
KCNTSTCATQRLANELVRLQTYPRTNVGSNTY [Compound 53]	−92%	−89%	−36%	
KCDTATCVTHRLAGLLSRSQTYPRTNTGSNTY [Compound 94]	−62%	−42%	−36%	−31%
Ac-ACNTATCVLGRLSQELHK(PEG5000)LQTYPRTNTGSNTY [Compound 47]	−5%	−13%	−27%	
KCNTATCVLGRLTEFLHRLQTYPRTNTGSNTY [Compound 103]	−50%	−44%	−30%	
KCNTATCVLGRLADFLHRFHTFPRTNTGSNTY [Compound 108]	−70%	−66%	−38%	
CSNASTCVLGRLSQELHRLQTYPRTNTGSNTY [Compound 21]	9%	−5%	−18%	−18%
Isocaproyl-STAVL(Aib)[K(For)]LSQEL(Aib)[K(For)]LQTYPRTNVGSNTY ({Pentanoyl(4-Me)}-STAVL[Aib]K(For)LSQEL[Aib]K(For)LQTYPRTNVGSNTY-NH2; SMILES CC(C)CCC(=O)N[C@@H](CO)C(=O)N[C@H](C(=O)N[C@@H](C)C(=O)N[C@H](C(=O)N[C@@H](CC(C)C)C(=O)NC(C)(C)C(=O)N[C@@H](CCCCNC=O)C(=O)N[C@@H](CC(C)C)C(=O)N[C@@H](CO)C(=O)N[C@@H](CCC(N)=O)C(=O)N[C@@H](CCC(=O)O)C(=O)N[C@@H](CC(C)C)C(=O)NC(C)(C)C(=O)N[C@@H](CCCCNC=O)C(=O)N[C@@H](CC(C)C)C(=O)N[C@@H](CCC(N)=O)C(=O)N[C@H](C(=O)N[C@@H](Cc1ccc(O)cc1)C(=O)N1CCC[C@H]1C(=O)N[C@@H](CCCNC(=N)N)C(=O)N[C@H](C(=O)N[C@@H](CC(N)=O)C(=O)N[C@H](C(=O)NCC(=O)N[C@@H](CO)C(=O)N[C@@H](CC(N)=O)C(=O)N[C@H](C(=O)N[C@@H](Cc1ccc(O)cc1)C(N)=O)[C@@H](C)O)C(C)C)[C@@H](C)O)[C@@H](C)O)C(C)C)[C@@H](C)O) [Compound 32]	−15%	−21%	−31%	
KCNTATCVLGRLSQELHKLQTYPRTNTGSNTY [Compound 24]	−40%	−34%	−35%	−35%
KCNTATCVLGRLADALHRLQTYPRTNTGSNTY [Compound 95]	−81%	−69%	−34%	−31%
CSNLATCVLGRLSQELHRLQTYPRTNTGSNTY [Compound 22]	−11%	−20%	−31%	−30%
CSALSTCVLGRLSQELHRLQTYPRTNTGSNTY [Compound 26]	−29%	−36%	−47%	
KCNTATCVLGRLSQELHRLQTYPRTNTGSKAF [Compound 93]	−43%	−30%	−27%	−29%
KCNTATCVLGRLSQELHRLQTLPRTNTGSNTY [Compound 11]	−52%	−47%	−38%	−35%
KCNTATCMLGRYTQDFHRLQTYPRTNTGSNTY [Compound 66]	−13%	−15%	−28%	
CANLSTCVLGRLSQELHRLQTYPRTNTGSNTY [Compound 19]	−25%	−25%	−35%	−31%

Substance	cumulative food intake compared to vehicle, 30 min	cumulative food intake compared to vehicle, 60 min	cumulative food intake compared to vehicle, 120 min	cumulative food intake compared to vehicle, 180 min
KCNTATCVLGRLSQELHRLQTYPTNVGSEAF [Compound 85]	3%	−16%	−16%	
KCNTASCVLGRLSQELHRLQTYPRTNTGSNTY [Compound 36]	−34%	−22%	−24%	−25%
KCNTATCVLGRLSQELHRLQNFVPRTNTGSNTY [Compound 90]	−55%	−41%	−24%	−15%
KCNTATCVLGRLADFLHRLQTYPRTNTGSNTY [Compound 88]	−64%	−61%	−39%	−22%
KCNTATCVLGRLAQFLHRLQTYPRTNTGSNTY [Compound 106]	−58%	−54%	−39%	
KCNTATCVLGRLAAFLHRLQTYPRTNTGSNTY [Compound 96]	−49%	−38%	−19%	−23%
KCNTATCVLGRLSQELHRYPRTNTGSNTY [Compound 39]	7%	−14%	−23%	
Isocaproyl-STAVL(Aib)[K(For)]LSQEL(Aib)[K(For)]LQTYPRTNTGSNTY ({Pentanoyl(4-Me)}-STAVL[Aib]K(For)LSQEL[Aib]K(For)LQTYPRTNTGSNTY-NH2; SMILES CC(C)CCC(=O)N[C@@H](CO)C(=O)N[C@H](C(=O)N[C@@H](C)C(=O)N[C@H](C(=O)N[C@@H](CC(C)C)C(=O)NC(C)(C)C(=O)N[C@@H](CCCCNC=O)C(=O)N[C@@H](CC(C)C)C(=O)N[C@@H](CO)C(=O)N[C@@H](CCC(N)=O)C(=O)N[C@@H](CCC(=O)O)C(=O)N[C@@H](CC(C)C)C(=O)NC(C)(C)C(=O)N[C@@H](CCCCNC=O)C(=O)N[C@@H](CC(C)C)C(=O)N[C@@H](CCC(N)=O)C(=O)N[C@H](C(=O)N[C@@H](Cc1ccc(O)cc1)C(=O)N1CCC[C@H]1C(=O)N[C@@H](CCCNC(=N)N)C(=O)N[C@H](C(=O)N[C@@H](CC(N)=O)C(=O)N[C@H](C(=O)NCC(=O)N[C@@H](CO)C(=O)N[C@@H](CC(N)=O)C(=O)N[C@H](C(=O)N[C@@H](Cc1ccc(O)cc1)C(N)=O)[C@@H](C)O)[C@@H](C)O)[C@@H](C)O)[C@@H](C)O)C(C)C)[C@@H](C)O) [Compound 31]	−11%	−18%	−23%	
KCNTATCVLGRLADFLHRFQTFPRTNTGSGTP [Compound 109]	−61%	−54%	−43%	
KCNTSTCATQRLANELVRLQTYPRTNVGSEAF [Compound 84]	−53%	−40%	−20%	
TCDTATCVLGRLSQELHRLQTYPRTNTGSNTY [Compound 114]	−17%	−20%	−25%	
KCNTATCATQRLSQELHRLQTYPRTNVGSNTY [Compound 52]	−29%	−24%	−23%	
KCNTATCVLGRLSQELHRLQTLPPTNVGSNTY [Compound 13]	−40%	−33%	−25%	−24%
ACDTATCVLGRLSQELHRLQTYPRTNTGSNTY [Compound 92]	−31%	−29%	−30%	−27%
KCNTATCVLGRLSQELHRLQTYPRTNTGSETF [Compound 91]	−59%	−47%	−26%	−24%
KCNTATCVLGRLSQELHRLQTLLQTYPRTNTGSNTY [Compound 48]	−54%	−51%	−36%	
KCNTATCVTHRLSQELHRLQTYPRTNTGSNTY [Compound 87]	−43%	−32%	−21%	
